Measured values: patent US12599136B2, “Substituted isophthalic acid diamides and their use as herbicides” (Bayer Aktiengesellschaft, priority 2020, dated 2026)

What was measured:
Assay type in all cases: in vivo
[1] = tested on: Echinochloa crus-galli; assay: Pre-emergence herbicidal action against ECHCG; conditions: for Pre-emergence action against ECHCG: visual score after 3 weeks vs untreated controls; for Herbicidal action against ECHCG: comparative experiment, pre-emergence
Procedure, shortened: (§1)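 Pre-emergence soil-surface spray of formulated compound (WP or EC; 600 to 800 l/ha; 0.2% wetting agent) over seeds sown in sandy loam. After 3 weeks under greenhouse conditions, damage is estimated visually in percent against untreated plants.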

[2] = tested on: Abutilon theophrasti; assay: Post-emergence herbicidal action against ABUTH
Procedure, shortened: (§2)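 Greenhouse plants in sandy loam were sprayed at the one-leaf stage, 2 to 3 weeks after sowing, with WP or EC formulations as aqueous suspension or emulsion (600 to 800 l/ha water, 0.2% wetting agent). Visual damage was scored about 3 weeks later versus untreated controls, 0% = like control, 100% = dead.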

[3] = tested on: Polygonum convolvulus; assay: Post-emergence herbicidal action against POLCO; conditions: 80 g/ha, visual assessment about 3 weeks after treatment
Procedure, shortened: as §2

[4] = tested on: Avena fatua; assay: Post-emergence herbicidal action against AVEFA; conditions: for Post-emergence action against AVEFA in %: visual assessment about 3 weeks after treatment
Procedure, shortened: as §2

[5] = tested on: Alopecurus myosuroides; assay: Post-emergence herbicidal action against ALOMY
Procedure, shortened: as §2

[6] = tested on: Echinochloa crus-galli; assay: Post-emergence herbicidal action against ECHCG; conditions: visual assessment about 3 weeks after treatment
Procedure, shortened: as §2

[7] = tested on: Cyperus esculentus; assay: Post-emergence herbicidal action against CYPES; conditions: visual assessment about 3 weeks after treatment
Description: (§3) Seeds of monocotyledonous and dicotyledonous weed and crop plants are laid out in sandy loam soil in wood-fiber pots, covered with soil and cultivated in a greenhouse under good growth conditions. 2 to 3 weeks after sowing, the test plants are treated at the one-leaf stage. The compounds of the invention, formulated in the form of wettable powders (WP) or as emulsion concentrates (EC), are then sprayed onto the green parts of the plants in the form of an aqueous suspension or emulsion at a water application rate equivalent to 600 to 800 l/ha, with addition of 0.2% wetting agent. After the test plants have been left to stand in the greenhouse under optimal growth conditions for about 3 weeks, the action of the preparations is assessed visually in comparison to untreated controls (herbicidal action in percent (%): 100% activity=the plants have died, 0% activity=like control plants). […] The tables below illustrate, in an illustrative manner, the post-emergence herbicidal action of the compounds of the invention, the herbicidal activity being stated in percent.

[8] = tested on: Viola tricolor; assay: Pre-emergence herbicidal action against VIOTR; conditions: 320 g/ha
Procedure, shortened: as §1

[9] = tested on: Stellaria media; assay: Pre-emergence herbicidal action against STEME
Procedure, shortened: as §1

[10] = tested on: Hordeum murinum; assay: Post-emergence herbicidal action against HORMU
Description: as §3

[11] = tested on: Lolium rigidum; assay: Post-emergence herbicidal action against LOLRI
Description: as §3

[12] = tested on: Polygonum convolvulus; assay: Pre-emergence herbicidal action against POLCO; conditions: 320 g/ha
Procedure, shortened: as §1

[13] = tested on: Viola tricolor; assay: Post-emergence herbicidal action against VIOTR
Procedure, shortened: as §2

[14] = tested on: Amaranthus retroflexus; assay: Post-emergence herbicidal action against AMARE; conditions: visual assessment about 3 weeks after treatment
Procedure, shortened: as §2

[15] = tested on: Matricaria inodora; assay: Pre-emergence herbicidal action against MATIN; conditions: for Pre-emergence action against MATIN: visual score after 3 weeks vs untreated controls
Procedure, shortened: as §1

[16] = tested on: Setaria viridis; assay: Pre-emergence herbicidal action against SETVI; conditions: for Herbicidal action against SETVI: comparative experiment
Procedure, shortened: as §1

[17] = tested on: Veronica persica; assay: Pre-emergence herbicidal action against VERPE
Procedure, shortened: as §1

[18] = tested on: Pharbitis purpurea; assay: Post-emergence herbicidal action against PHBPU; conditions: 80 g/ha, visual assessment about 3 weeks after treatment
Procedure, shortened: as §2

[19] = tested on: Lolium rigidum; assay: Pre-emergence herbicidal action against LOLRI
Procedure, shortened: as §1

[20] = tested on: Hordeum murinum; assay: Pre-emergence herbicidal action against HORMU; conditions: visual score after 3 weeks vs untreated controls
Procedure, shortened: as §1

[21] = tested on: Matricaria inodora; assay: Post-emergence herbicidal action against MATIN; conditions: for Post-emergence action against MATIN in %: visual assessment about 3 weeks after treatment
Procedure, shortened: as §2

[22] = tested on: Cyperus esculentus; assay: Pre-emergence herbicidal action against CYPES; conditions: for Pre-emergence action against CYPES: visual score after 3 weeks vs untreated controls; for Herbicidal action against CYPES: comparative experiment, pre-emergence
Procedure, shortened: as §1

[23] = tested on: Abutilon theophrasti; assay: Pre-emergence herbicidal action against ABUTH; conditions: for Pre-emergence action against ABUTH: visual score after 3 weeks vs untreated controls
Procedure, shortened: as §1

[24] = tested on: Veronica persica; assay: Post-emergence herbicidal action against VERPE; conditions: visual assessment about 3 weeks after treatment
Procedure, shortened: as §2

[25] = tested on: Avena fatua; assay: Pre-emergence herbicidal action against AVEFA; conditions: for Pre-emergence action against AVEFA: visual score after 3 weeks vs untreated controls
Procedure, shortened: as §1

[26] = tested on: Setaria viridis; assay: Post-emergence herbicidal action against SETVI; conditions: for Post-emergence action against SETVI in %: visual assessment about 3 weeks after treatment
Procedure, shortened: as §2

[27] = tested on: Alopecurus myosuroides; assay: Pre-emergence herbicidal action against ALOMY; conditions: for Pre-emergence action against ALOMY: visual score after 3 weeks vs untreated controls
Procedure, shortened: as §1

[28] = tested on: Amaranthus retroflexus; assay: Pre-emergence herbicidal action against AMARE; conditions: for Pre-emergence action against AMARE: visual score after 3 weeks vs untreated controls; for Herbicidal action against AMARE: comparative experiment, pre-emergence
Procedure, shortened: as §1

[29] = tested on: Stellaria media; assay: Post-emergence herbicidal action against STEME; conditions: for Post-emergence action against STEME in %: visual assessment about 3 weeks after treatment
Procedure, shortened: as §2

[30] = comparative experiment, 5 g a.i./ha
[31] = comparative experiment, pre-emergence, 20 g a.i./ha
[32] = comparative experiment, pre-emergence, 80 g a.i./ha

For CN(C)C(=O)c1c(C(F)(F)F)ccc(C(=O)Nc2nnnn2C)c1Cl [Example 1-123], the “Pre-emergence action against ECHCG” value ([1]; 20 g/ha) was 90%, the “Pre-emergence action against ECHCG” value ([1]; 80 g/ha) was 100% and the “Pre-emergence action against ECHCG” value ([1]; 320 g/ha) was 100%. For the same compound, the “Herbicidal action against ECHCG” value ([1]; 20 g a.i./ha) was 90, the “Herbicidal action against ECHCG” value ([1]; 80 g a.i./ha) was 100 and the “Post-emergence action against ABUTH” value ([2]; 5 g/ha) was 100%. For the same compound, the “Post-emergence action against ABUTH” value ([2]; 20 g/ha) was 100%, the “Post-emergence action against ABUTH” value ([2]; 80 g/ha) was 100% and the “Herbicidal action against ABUTH” value [2, 30] was 100. For the same compound, the “Post-emergence action against POLCO in %” value [3] was 90%, the “Post-emergence action against AVEFA in %” value ([4]; 5 g/ha) was 80% and the “Post-emergence action against AVEFA in %” value ([4]; 20 g/ha) was 90%. The “Post-emergence action against AVEFA in %” value ([4]; 80 g/ha) was 100%, the “Herbicidal action against AVEFA” value [4, 30] was 80 and the “Post-emergence action against ALOMY” value ([5]; 5 g/ha) was 100%. For the same compound, the “Post-emergence action against ALOMY” value ([5]; 20 g/ha) was 100%, the “Post-emergence action against ALOMY” value ([5]; 80 g/ha) was 100% and the “Herbicidal action against ALOMY” value [5, 30] was 100. For the same compound, the “Post-emergence action against ECHCG in %” value ([6]; 5 g/ha) was 100%, the “Post-emergence action against ECHCG in %” value ([6]; 20 g/ha) was 100% and the “Post-emergence action against ECHCG in %” value ([6]; 80 g/ha) was 100%. The “Post-emergence action against CYPES in %” value ([7]; 5 g/ha) was 80%, the “Post-emergence action against CYPES in %” value ([7]; 20 g/ha) was 90% and the “Post-emergence action against CYPES in %” value ([7]; 80 g/ha) was 90%. For the same compound, the “Pre-emergence action against VIOTR” value [8] was 90%, the “Pre-emergence action against STEME” value ([9]; 20 g/ha) was 90% and the “Pre-emergence action against STEME” value ([9]; 80 g/ha) was 90%. The “Pre-emergence action against STEME” value ([9]; 320 g/ha) was 90%, the “Post-emergence action against HORMU in %” value ([10]; 5 g/ha) was 80% and the “Post-emergence action against HORMU in %” value ([10]; 20 g/ha) was 80%. For the same compound, the “Post-emergence action against HORMU in %” value ([10]; 80 g/ha) was 100%, the “Post-emergence action against LOLRI in %” value ([11]; 20 g/ha) was 80% and the “Post-emergence action against LOLRI in %” value ([11]; 80 g/ha) was 90%. The “Pre-emergence action against POLCO” value [12] was 90%, the “Post-emergence action against VIOTR in %” value ([13]; 5 g/ha) was 80% and the “Post-emergence action against VIOTR in %” value ([13]; 20 g/ha) was 100%. The “Post-emergence action against VIOTR in %” value ([13]; 80 g/ha) was 100%, the “Post-emergence action against AMARE in %” value ([14]; 5 g/ha) was 100% and the “Post-emergence action against AMARE in %” value ([14]; 20 g/ha) was 100%. For the same compound, the “Post-emergence action against AMARE in %” value ([14]; 80 g/ha) was 100%, the “Pre-emergence action against MATIN” value ([15]; 80 g/ha) was 90% and the “Pre-emergence action against MATIN” value ([15]; 320 g/ha) was 90%. The “Herbicidal action against MATIN” value [15, 31] was 70, the “Pre-emergence action against SETVI” value ([16]; 20 g/ha) was 90% and the “Pre-emergence action against SETVI” value ([16]; 80 g/ha) was 100%. For the same compound, the “Pre-emergence action against SETVI” value ([16]; 320 g/ha) was 100%, the “Herbicidal action against SETVI” value ([16]; 20 g a.i./ha) was 90 and the “Herbicidal action against SETVI” value ([16]; 80 g a.i./ha) was 100. For the same compound, the “Pre-emergence action against VERPE” value ([17]; 80 g/ha) was 80%, the “Pre-emergence action against VERPE” value ([17]; 320 g/ha) was 90% and the “Post-emergence action against PHBPU in %” value [18] was 100%. For the same compound, the “Pre-emergence action against LOLRI” value ([19]; 80 g/ha) was 80%, the “Pre-emergence action against LOLRI” value ([19]; 320 g/ha) was 100% and the “Pre-emergence action against HORMU” value ([20]; 80 g/ha) was 90%. The “Pre-emergence action against HORMU” value ([20]; 320 g/ha) was 100%, the “Post-emergence action against MATIN in %” value ([21]; 5 g/ha) was 80% and the “Post-emergence action against MATIN in %” value ([21]; 20 g/ha) was 80%. The “Post-emergence action against MATIN in %” value ([21]; 80 g/ha) was 100%, the “Herbicidal action against MATIN” value [21, 30] was 80 and the “Pre-emergence action against CYPES” value ([22]; 20 g/ha) was 80%. The “Pre-emergence action against CYPES” value ([22]; 80 g/ha) was 100%, the “Pre-emergence action against CYPES” value ([22]; 320 g/ha) was 100% and the “Herbicidal action against CYPES” value ([22]; 20 g a.i./ha) was 80. For the same compound, the “Herbicidal action against CYPES” value ([22]; 80 g a.i./ha) was 100, the “Pre-emergence action against ABUTH” value ([23]; 20 g/ha) was 80% and the “Pre-emergence action against ABUTH” value ([23]; 80 g/ha) was 100%. The “Pre-emergence action against ABUTH” value ([23]; Dosage column 320 g/ha (heading prints 3200 g/ha)) was 100%, the “Herbicidal action against ABUTH” value [23, 32] was 100 and the “Post-emergence action against VERPE in %” value ([24]; 5 g/ha) was 80%. The “Post-emergence action against VERPE in %” value ([24]; 20 g/ha) was 80%, the “Post-emergence action against VERPE in %” value ([24]; 80 g/ha) was 100% and the “Pre-emergence action against AVEFA” value ([25]; 80 g/ha) was 90%. The “Pre-emergence action against AVEFA” value ([25]; 320 g/ha) was 100%, the “Herbicidal action against AVEFA” value [25, 32] was 90 and the “Post-emergence action against SETVI in %” value ([26]; 5 g/ha) was 100%. The “Post-emergence action against SETVI in %” value ([26]; 20 g/ha) was 100%, the “Post-emergence action against SETVI in %” value ([26]; 80 g/ha) was 100% and the “Herbicidal action against SETVI” value [26, 30] was 100. For the same compound, the “Pre-emergence action against ALOMY” value ([27]; 80 g/ha) was 80%, the “Pre-emergence action against ALOMY” value ([27]; 320 g/ha) was 100% and the “Herbicidal action against ALOMY” value [27, 31] was 70. For the same compound, the “Pre-emergence action against AMARE” value ([28]; 20 g/ha) was 90%, the “Pre-emergence action against AMARE” value ([28]; 80 g/ha) was 100% and the “Pre-emergence action against AMARE” value ([28]; 320 g/ha) was 100%. For the same compound, the “Herbicidal action against AMARE” value ([28]; 20 g a.i./ha) was 90, the “Herbicidal action against AMARE” value ([28]; 80 g a.i./ha) was 100 and the “Post-emergence action against STEME in %” value ([29]; 5 g/ha) was 100%. For the same compound, the “Post-emergence action against STEME in %” value ([29]; 20 g/ha) was 100%, the “Post-emergence action against STEME in %” value ([29]; 80 g/ha) was 100% and the “Herbicidal action against STEME” value [29, 30] was 100.
